In Sander's compilation of Henry's law constants (doi:10.1016/s0021-9673(00)91567-x):

Test: Henry solubility constant Hcp at 298.15 K (mol/(m3 Pa))
Settings: reference: Przyjazny et al. (1983)
For `CCCCS` [1-butanethiol], the “Henry solubility constant Hcp” value was 0.0022.
For `CCSSCC` [diethyl disulfide], the “Henry solubility constant Hcp” value was 0.0063.
In the case of `CCCS` [1-propanethiol], the “Henry solubility constant Hcp” value is reported as 0.0024.
In the case of `CSC` [dimethyl sulfide], the “Henry solubility constant Hcp” value is reported as 0.0056.
In the case of `CC(C)SC(C)C` [di-(2-propyl)-sulfide], the “Henry solubility constant Hcp” value is reported as 0.003.
In the case of `Cc1cccs1` [2-methylthiophene], the “Henry solubility constant Hcp” value is reported as 0.0041.
For `CCSCC` [diethyl sulfide], the “Henry solubility constant Hcp” value was 0.0054.
In the case of `c1ccsc1` [thiophene], the “Henry solubility constant Hcp” value is reported as 0.0044.
With `CS` [methanethiol] the “Henry solubility constant Hcp” value was 0.0039.
With `CCCSCCC` [dipropyl sulfide] the “Henry solubility constant Hcp” value was 0.0033.
In the case of `CCS` [ethanethiol], the “Henry solubility constant Hcp” value is reported as 0.0028.
